These results are taken from patent US3966718A, “7-β-Acylamino-ceph-3-ems and salts and esters therefor” (Beecham Group Limited, priority 1973, dated 1976).

Values after ≈ are worked out from the molar mass of the structure shown. Structures can show the parent of a compound that is named as a salt. Where two headings read alike, the source gives them in different places.

What all share (format): cell-based
For one experiment, the system named is Klebsiella aerogenes A. The experiment is described as follows: MIC on nutrient agar. The note with it: read-out: minimum inhibitory concentration (MIC).
In a further experiment the test system is Proteus mirabilis C977. Nature of the experiment: MIC on nutrient agar.
A further experiment has as its system B. subtilis. The experiment is described as follows: MIC on (nutrient) agar. The note with it: Bacillus subtilis; B. subtilis, agar; read-out: minimum inhibitory concentration (MIC).
The subject of the next experiment is β-Haemolytic Strep. CN10. Nature of the experiment: MIC on (nutrient) agar. The settings on record: β-Haemolytic Strep. CN10, agar; read-out: minimum inhibitory concentration (MIC).
For a further experiment, the system named is Staph. aureus Russell. Nature of the experiment: MIC on (nutrient) agar. The settings on record: Staphylococcus aureus; Staph. aureus Russell, agar; read-out: minimum inhibitory concentration (MIC).
The test system of another experiment is Shigella sonnei. Nature of the experiment: MIC on nutrient agar. The settings on record: read-out: minimum inhibitory concentration (MIC).
The next experiment has as its system E. coli JT 1. Nature of the experiment: MIC on nutrient agar. The note with it: Escherichia coli.
A further experiment has as its system Staph. aureus Oxford. Nature of the experiment: MIC on (nutrient) agar. The note with it: Staphylococcus aureus, read-out: minimum inhibitory concentration (MIC).
A further experiment concerns Salmonella typhi. Nature of the experiment: MIC on nutrient agar. The settings on record: Salmonella enterica, read-out: minimum inhibitory concentration (MIC).
Experiment [1] has as its system Gram-positive and Gram-negative organisms. The experiment is described as follows: antibacterial activity (general statement). The note with it: in words.
Where [2] appears, read: Proteus mirabilis C977, nutrient agar, read-out: minimum inhibitory concentration (MIC).
The mark [3] stands for this setting: JT1, read-out: minimum inhibitory concentration (MIC).
[4] abbreviates: Klebsiella aerogenes A, nutrient agar.
[5] abbreviates: JT1, E. coli JT 1, nutrient agar, read-out: minimum inhibitory concentration (MIC).

Take `NC(CC(=O)N[C@@H]1C(=O)N2C(C(=O)O)=C(Cc3cccnc3)CS[C@H]12)C1CC=CCC1` (mixture of isomers) [Example 18, 7β-(DL-3-[cyclohex-3-ene]-3-aminopropionamido)-3(3-pyridylmethyl)-3-cephem-4-carboxylic acid di-trifluoroacetic acid salt]: the MIC in the experiment on Klebsiella aerogenes A (Klebsiella aerogenes) turned out to be 125 µg/mL; in the experiment with Proteus mirabilis C977 (setting [2]) it was 250 µg/mL; in the experiment on B. subtilis it was 1.25 µg/mL; with β-Haemolytic Strep. CN10, 0.5 µg/mL; with Staph. aureus Russell it was 1.25 µg/mL; with Shigella sonnei it was 125 µg/mL. In addition, the MIC turned out to be 125 µg/mL in the experiment with E. coli JT 1 (setting [3]), 0.5 µg/mL in the experiment on Staph. aureus Oxford and 125 µg/mL in the experiment with Salmonella typhi.

In the case of `NC(C(=O)N[C@@H]1C(=O)N2C(C(=O)O)=C(Cc3cccnc3)CS[C@H]12)C1CC1` (mixture of isomers) [Example 19, 7β-(DL-α-aminocyclopropylacetamido)-3(3-pyridylmethyl)-3-cephem-4-carboxylic acid di-trifluoroacetic acid salt], the MIC with Klebsiella aerogenes A (setting [4]) is 250 µg/mL; in the experiment on Proteus mirabilis C977 (setting [2]), 500 µg/mL; in the experiment on B. subtilis it was 12.5 µg/mL; with β-Haemolytic Strep. CN10, 2.5 µg/mL; with Staph. aureus Russell, 12.5 µg/mL; in the experiment with Shigella sonnei, 250 µg/mL. Moreover, the values for the MIC with E. coli JT 1 (setting [5]), in the experiment with Staph. aureus Oxford and with Salmonella typhi were 500 µg/mL, 5 µg/mL and 250 µg/mL, respectively.

On to `O=C(Cc1cccs1)N[C@@H]1C(=O)N2C(C(=O)O)=C(Cc3cccnc3)CS[C@H]12` [Example 2, 3(3-pyridylmethyl)-7β-(2-thienylacetamido)-3-cephem-4-carboxylic acid], for which, in experiment [1], the antibacterial activity entry is given as “essentially similar to the trifluoroacetate salt described in Example 1”.

In the case of `NC(C(=O)N[C@@H]1C(=O)N2C(C(=O)O)=C(Cc3cccnc3)CS[C@H]12)c1cccs1` (stereo partly drawn) [Example 15, 7-β-[(dl)-α-Amino-2-thienylacetamido]-3-(3-pyridylmethyl)-3-cephem-4-carboxylic acid Di-trifluoroacetic acid salt], the MIC in the experiment on Klebsiella aerogenes A (setting [4]) was determined as 5 µg/mL; with Proteus mirabilis C977 (setting [2]), 12.5 µg/mL; with B. subtilis it was 1.25 µg/mL; with β-Haemolytic Strep. CN10, 0.5 µg/mL; in the experiment with Staph. aureus Russell, 5 µg/mL; with Shigella sonnei it was 5 µg/mL. Further, the MIC in the experiment with E. coli JT 1 (setting [5]) turned out to be 12.5 µg/mL; in the experiment with Staph. aureus Oxford, 0.5 µg/mL; with Salmonella typhi, 2.5 µg/mL.

In the case of `O=C(Cc1ccncc1)N[C@@H]1C(=O)N2C(C(=O)O)=C(Cc3cccnc3)CS[C@H]12` [Example 17, 7β(4-pyridylacetamido)-3(3-pyridylmethyl)-3-cephem-4-carboxylic acid di-trifluoroacetic acid salt], the MIC is 10 µg/mL with Klebsiella aerogenes A (setting [4]); 10 µg/mL in the experiment with Proteus mirabilis C977 (setting [2]); 0.25 µg/mL in the experiment with B. subtilis; 0.12 µg/mL in the experiment on β-Haemolytic Strep. CN10; 25 µg/mL in the experiment with Staph. aureus Russell; 25 µg/mL in the experiment on Shigella sonnei. For the same molecule, the MIC with E. coli JT 1 (setting [5]) is 25 µg/mL; with Staph. aureus Oxford it was 0.12 µg/mL; in the experiment on Salmonella typhi, 10 µg/mL.

As for `CN(C(=O)C=Cc1ccccc1)C(=O)N[C@@H](C(=O)N[C@@H]1C(=O)N2C(C(=O)O)=C(Cc3cccnc3)CS[C@H]12)c1ccccc1` [Example 20], the MIC in the experiment with Klebsiella aerogenes A (setting [4]) was 63 µg/mL (≈ 103 µM); with Proteus mirabilis C977 (Proteus mirabilis, C977, read-out: minimum inhibitory concentration (MIC)), greater than 125 µg/mL; with B. subtilis, 32 µg/mL (≈ 52.3 µM); in the experiment on β-Haemolytic Strep. CN10, 0.25 µg/mL (≈ 0.409 µM); in the experiment on Staph. aureus Russell, 63 µg/mL (≈ 103 µM); in the experiment with Shigella sonnei, 63 µg/mL (≈ 103 µM). The MIC was 125 µg/mL (≈ 204 µM) in the experiment on E. coli JT 1 (setting [3]), 4 µg/mL (≈ 6.54 µM) in the experiment with Staph. aureus Oxford and greater than 125 µg/mL in the experiment with Salmonella typhi.
